According to ChEMBL document CHEMBL3507680, “University of Dundee, Gates Library screen for HepG2 cell viability”:

Assay: Human HepG2 cell viability assay in 384 well format
Type: toxicity, cell-based
Parameters: dose 125 nL, time 70.5 hour; cytotoxicity at 70.5 h: concentration not given beside the values
Conditions: HepG2 cells, read-out: Inhibition

Structure (SMILES)	cytotoxicity at 70.5 h [%]
Cc1nc2c(c(N3CCCC(OCc4ccccn4)C3)n1)CCNCC2 (stereo unspecified)	-14.9
CCC(C)(C)NC(=O)CN1C=Nc2ccccc2S1(=O)=O	-5.89
O=C(NCCO)Nc1cccc(Cl)c1SC(F)F	16.9
Cc1noc(CN(C)C2CCCN(Cc3noc(C4CC4)n3)C2)n1 (stereo unspecified)	-10.7
CCN1CCN(CC(O)c2ccc(OC(F)(F)F)cc2)CC1 (stereo unspecified)	28.9
Cc1ccc(O)c(CN2CCCCC2CCN2CCOCC2)c1 (stereo unspecified)	-7.89
Cc1cc(C)cc(OCC(=O)N2CCCN(CC(N)=O)CC2)c1	-16.4
CCn1c(N)nc2cc(C(=O)NCCc3nnc(C)s3)cnc21	-24.8
NC(=O)CN1CCC(NC(=O)N2CCCC2c2ccncc2)CC1 (stereo unspecified)	-11.7
COc1ccc(C2(NC(=O)C3CC(=O)N(C)C3)CCCC2)cc1 (stereo unspecified)	20.4
O=C(c1ccccn1)N1CCc2ncnc(N3CCOCC3)c2CC1	-5.19
CN(C)S(=O)(=O)c1cccc(NC(=O)Cc2ccon2)c1	-4.37
CCn1ncc(-c2cc(C(F)F)n3nc(CCC(=O)O)nc3n2)c1C	-1.79
Cc1ccc(CN2C[C@@H](C(=O)O)[C@H](c3cccnc3)C2)s1	1.41
Nc1cc(C(=O)N2CCC3(CC2)Nc2ccccc2NC3=O)ccn1	19.6
O=c1[nH]c2nc(N3CCSCC3)ncc2c(=O)n1-c1cccc(F)c1	-0.348
c1ccc(-n2nc(CNC3CCc4ncnn4C3)c3c2CCC3)cc1 (stereo unspecified)	9.35
O=C(C1CNCCN1C(=O)CCOc1ccccc1)N1CCCC1 (stereo unspecified)	-1.81
O=S(=O)(Cc1ccccc1Cl)NC(CO)c1ccco1 (stereo unspecified)	-6.59
Cc1ccc(O[C@@H]2C[C@H]3CN(Cc4nccn4C)CCN3C2)cc1	-4.55
CS(=O)(=O)N1CCC(C(=O)NC(Cc2ccsc2)c2nccs2)CC1 (stereo unspecified)	-20.6
CCn1ccnc1CN1CCCN(C(=O)Cc2ccc(C)cc2)CC1	-1.67
Cc1n[nH]c(C2CN(C(=O)c3ccc(Cl)o3)CCO2)n1 (stereo unspecified)	-11.1

Structure (SMILES)	cytotoxicity at 70.5 h [%]
CC(C)C[C@@H](C(N)=O)n1cc(-c2cncnc2)nn1	-8.12
Cn1ccnc1SCCNc1cc(N2CCOCC2)ncn1	-19.6
CS(=O)(=O)NC1CCN(C(=O)CCn2cccn2)CC1	-9.56
O=C(Cn1cc(-c2ccccc2)cn1)N1CCNC1=O	-21.6
Cc1occc1C(=O)N1CCC(C(O)c2ccc(Cl)cc2)CC1 (stereo unspecified)	5.5
Cc1nc(C)n(CC2CN(CCc3ccccc3Cl)CCO2)n1 (stereo unspecified)	39.5
Cc1nc(-c2ccsc2)ccc1C(=O)NCCC1CCCO1 (stereo unspecified)	28.6
O=C(NCCCO)c1cc(-c2cc[nH]n2)n2ccccc12	-102
CC(=O)N1CCCC1c1ccc(-c2c(C)noc2C)cn1 (stereo unspecified)	-9.29
COCCN1CCC(NCc2cc(F)ccc2F)C1 (stereo unspecified)	22.5
OCc1cc2ccccc2nc1NC1CC=CC1	-5.4
O=C(COc1ccc2c(c1)CCC2)NS(=O)(=O)c1cncc(Br)c1	-2.54
CCNC(=O)[C@@H]1C[C@@H](N)CN1C(=O)Cc1cc(C)ccc1C	-8.37
CN(C)S(=O)(=O)NCC1(c2ccccc2Br)CC1	13.4
CCc1nc(C2CCCN2C(=O)CCc2ccc3c(c2)OCO3)no1 (stereo unspecified)	-24.9
O[C@@]1(CNCC2(Cn3cccn3)CC2)CCCN2CCCC[C@@H]21	-11.3
CC(C)c1cc(N2CCC(N(C)C)C2)n2nccc2n1 (stereo unspecified)	-8.85
CC(C)Cn1cncc1CNC1CCCNC1 (stereo unspecified)	-4.78
Cc1ccc(-c2ccnc(NC(C)c3n[nH]c(=O)[nH]3)n2)c(C)n1 (stereo unspecified)	-12.8
CCCn1nc2c(cc1=O)CN(Cc1cc(C)on1)CC2	4.88
Cc1ccc2c(c1)C1(CC(=O)Nc3[nH]ncc31)C(=O)N2C (stereo unspecified)	-21.9
Cc1nn(C)c(C)c1CN(C)C(=O)c1cccc(CCC(C)(C)O)c1	-0.259
O=C(Cc1cnccn1)N1CCC(c2nccn2CC2CC2)CC1	31.6
